One test has as its target T1, MraYBS T53A mutant (Bacillus subtilis, UniProt Q03521, T53A).
T1 construct: MBP; made in house
Nature of the test: HPLC-based MraY functional assay, mutant MraY. It counts as biochemical. The settings on record: consumption of 6 in one-hour reaction. As for the experimental part:
(§1) The purified MraY from Bacillus subtilis was prepared as described in our previous reports. For 5 and 7–10, the reaction mixture containing MraYBS (10 μg/mL), C55P (200 μM) in 40 μL reaction buffer (30 mM Tris, 10 mM MgCl2, 10 mM NaCl, 0.1 mM Tween-20, 2.5% DMSO, pH 8.0) were pre-incubated at 37 °C for 15 min. The reactions were initiated by the addition of Park’s nucleotide analogues (10 μM) and incubated at 37 °C for 1 h. The reaction mixtures were added by uridine (0.01 mg/mL) as the internal standard and heated to 100 °C to stop the transferring reaction. The samples were analyzed by RP-C18 HPLC with gradient elution of 0.25 M NH4HCO3(aq)/15% MeOH in water (100:0 to 0:100) at a flow rate of 1 mL/min over 45 min, and the peaks of substrates were monitored at UV 260 nm. […] The reaction mixtures were heated to 100 °C to stop the transferring reaction, and samples were analyzed by an anion-exchange column (SAX1, Supelco Co., 5 μm, 4.6 × 250 mm) with a linear gradient elution of NH4OAc (20 mM to 1 M in MeOH) at a flow rate of 1.0 mL/min over 30 min. The fluorescent substrates were monitored with λex 466 nm/λem 535 nm by fluorescence detector. […]

For a further test, the target named is T2, MraYBS K102A mutant (Bacillus subtilis, UniProt Q03521, K102A).
T2 construct: MBP; made in house
Briefly: HPLC-based MraY functional assay, mutant MraY. The test is classed as biochemical. Conditions: consumption of 6 in one-hour reaction. On the procedure:
as §1

Test [1] concerns the target T3, MraYBS (Bacillus subtilis, UniProt Q03521).
T3 construct: MBP; made in house
T3 sequence (Q03521 1-324): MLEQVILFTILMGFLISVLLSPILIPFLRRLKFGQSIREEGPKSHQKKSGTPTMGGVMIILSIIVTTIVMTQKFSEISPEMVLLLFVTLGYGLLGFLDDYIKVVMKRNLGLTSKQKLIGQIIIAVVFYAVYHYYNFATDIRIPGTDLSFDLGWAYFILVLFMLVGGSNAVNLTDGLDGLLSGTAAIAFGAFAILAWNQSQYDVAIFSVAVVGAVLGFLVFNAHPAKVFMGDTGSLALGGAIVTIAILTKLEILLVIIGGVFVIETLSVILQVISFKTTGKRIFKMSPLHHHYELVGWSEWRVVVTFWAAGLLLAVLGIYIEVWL
Nature of the test: HPLC-based MraY functional assay (substrate activity). It counts as biochemical. On the procedure: The purified MraY from Bacillus subtilis was prepared as described in our previous reports. […] […] The reaction mixtures were added by uridine (0.01 mg/mL) as the internal standard and heated to 100 °C to stop the transferring reaction. The samples were analyzed by RP-C18 HPLC with gradient elution of 0.25 M NH4HCO3(aq)/15% MeOH in water (100:0 to 0:100) at a flow rate of 1 mL/min over 45 min, and the peaks of substrates were monitored at UV 260 nm. For 6 and 11–17, the reaction mixture containing MraYBS (10 μg/mL), C55P (200 μM), 6-(7-Nitro-2,1,3-benzoxadiazol-4-ylamino)hexanoic acid (5 μM, internal standard) in 10 μL reaction buffer (30 mM Tris, 10 mM MgCl2, 10 mM NaCl, 0.1 mM Tween-20, 2.5% DMSO, pH 8.0) were pre-incubated at 37 °C for 15 min. […] The reaction mixtures were heated to 100 °C to stop the transferring reaction, and samples were analyzed by an anion-exchange column (SAX1, Supelco Co., 5 μm, 4.6 × 250 mm) with a linear gradient elution of NH4OAc (20 mM to 1 M in MeOH) at a flow rate of 1.0 mL/min over 30 min. The fluorescent substrates were monitored with λex 466 nm/λem 535 nm by fluorescence detector.

The target in test [2] is T3, MraYBS. Briefly: Biolayer interferometry-based (BLI) binding assay. On the procedure:
MraYBS binding was measured in a biolayer interferometry-based binding assay on Octet Red96® instrument (ForteBio, Inc.). The biotinylation of MraYBS was performed with using EZ-Link® Sulfo-NHS-LC-LC-Biotin Kit (Thermo Fisher Scientific, Inc.). In general, MraYBS (1.7 mg/mL) in 50 μL reaction buffer (0.01 M HEPES pH 7.4, 0.15 M NaCl, 0.005% v/v Surfactant P20), was added by the sulfo-NHS-LC-LC-biotin reagent (1 mM, 1 μL). After incubating for 30 minutes at room temperature, the biotinylated-MraYBS was purified by a Zeba^TM Spin Desalting Columns, 7K MWCO (Thermo Fisher Scientific, Inc.), and the buffer was changed to the binding buffer (30 mM Tris, 10 mM MgCl2, 10 mM NaCl, 0.1 mM Tween-20, pH 8.0) during the purification. Comparing to the non-biotinylated-MraYBS, the biotinylated-MraYBS remains 62% activity measured by the HPLC-based MraY functional assay in 1 h reaction. The biotinylated MraYBS was then immobilized to Super Streptavidin (SSA) Octet tips (ForteBio, Inc.) for reaching a fixed signal of 3 nm. Before the assay starting, the MraYBS-labeled SSA sensors were pre-soaked in binding buffer for 30 min. The association of Park’s analogues with MraYBS were measured by incubating MraYBS-labeled SSA sensors in binding buffer containing various concentrations of samples in Octet Red system. The dissociation was monitored by moving the ligand biosenors from the analyte solution to binding buffer. The dissociation constants (KD) were obtained by nonlinear regression analysis using the specific binding model with the GraphPad Prism program (GraphPad Software, San Diego, CA).
(In general: BLI is a label-free optical method that tracks binding on a fibre tip over time.)

The target in the next test is T4, MraYBS W297A mutant (Bacillus subtilis, UniProt Q03521, W297A).
T4 construct: MBP; made in house
Briefly: HPLC-based MraY functional assay, mutant MraY. Conditions: consumption of 6 in one-hour reaction. The test is classed as biochemical. As for the experimental part: as §1

Structures are written as SMILES.

As a reminder, the Kd is a measure of binding affinity in units of concentration. Read a low Kd as a tighter complex. On to `CC(=O)N[C@H]1[C@@H](OP(=O)(O)OP(=O)(O)OC[C@H]2O[C@@H](n3ccc(=O)[nH]c3=O)[C@H](O)[C@@H]2O)O[C@H](CO)[C@@H](O)[C@@H]1O[C@H](C)C(=O)N[C@@H](C)C(=O)N[C@H](CCC(=O)N[C@@H](CCCCNC(=O)CCCCCNc1ccc([N+](=O)[O-])c2nonc12)C(=O)N[C@H](C)C(=O)N[C@H](C)C(=O)O)C(=O)O` [Compound 6, NBD-Park’s nucleotide], for which the Relative activity at MraYBS T53A mutant came to 18%; on MraYBS K102A mutant, 33%; at MraYBS [1] (WT MraYBS, consumption of 6 in one-hour reaction) it was 100%; at MraYBS W297A mutant it was 17%. Further, the substrate consumption entry on MraYBS [1] (C55P (200 μM) as polyprenyl phosphate substrate, substrate 10 μM, within 1 h (60 min)) was “completely consumed”. Also, the Kd on MraYBS [2] amounted to 127 µM.
